# Measurements taken from PubChem BioAssay AID336 (DTP/NCI, 2004).
# Where “and” joins values, the source holds several entries; their conditions need not be identical. Equal entries are not always repeated. Inconclusive results and toxic doses are left out. *1 amine or outer side, *2 acyl side, *3 side chain or, on linkers, in order; H or OH if unused. Where a SMILES comes first, the peptide text is derived from it. Bridges are numbered along the chain shown (N, C = ends). Roman numbers before positions name the chains, in order. [ ]: non-standard residue; d: D form. Actinocin(9to1) = Cc1c2oc3c(C)ccc(C(=O)[*:1])c3nc-2c(C(=O)[*:2])c(N)c1=O; aThr = C[C@H](O)[C@H](N)C(=O)O; NMeV = CN[C@H](C(=O)O)C(C)C; Sar = CNCC(=O)O
# Test system: BDF1 mice, P388/VCR leukemia ip, median survival T/C
# Assay: NCI In Vivo Anticancer Drug Screen. Data for tumor model P388 Leukemia resistant to Vincristine; NSC 67574 (intraperitoneal) in B6D2F1 (BDF1) mice
# Details: endpoint: median survival time, higher = longer survival
# Method: The antitumor activity of compounds was measured in mice bearing transplantable tumors. Survival or tumor size were measured and the results are expressed as the measurement made in the treated group (T) divided by the measurement made in the vehicle treated control group (C). The tumor model used in this assay is P388 Leukemia resistant to Vincristine; NSC 67574 (intraperitoneal) in B6D2F1 (BDF1) mice
# [1] = dose: 15.0 mg/kg/injection, schedule: Q01DX010 (ip), vehicle: saline
# [2] = dose: 30.0 mg/kg/injection, schedule: Q01DX010 (ip), vehicle: saline
# [3] = dose: 60.0 mg/kg/injection, schedule: Q01DX010 (ip), vehicle: saline
# [4] = dose: 120.0 mg/kg/injection, schedule: Q01DX010 (ip), vehicle: saline
# [5] = dose: 2.0 mg/kg/injection, schedule: Q01DX010 (ip), vehicle: saline
# [6] = dose: 4.0 mg/kg/injection, schedule: Q01DX010 (ip), vehicle: saline
# [7] = dose: 8.0 mg/kg/injection, schedule: Q01DX010 (ip), vehicle: saline
# [8] = dose: 3.13 mg/kg/injection, schedule: Q01DX010 (ip), vehicle: saline
# [9] = dose: 6.25 mg/kg/injection, schedule: Q01DX010 (ip), vehicle: saline
# [10] = dose: 5.0 mg/kg/injection, schedule: Q01DX010 (ip), vehicle: saline
# [11] = dose: 10.0 mg/kg/injection, schedule: Q01DX010 (ip), vehicle: saline
# [12] = dose: 20.0 mg/kg/injection, schedule: Q01DX010 (ip), vehicle: saline
# [13] = dose: 40.0 mg/kg/injection, schedule: Q01DX010 (ip), vehicle: saline
# [14] = dose: 8.0 mg/kg/injection, schedule: Q04DX003 (ip), vehicle: water
# [15] = dose: 50.0 mg/kg/injection, schedule: Q01DX010 (ip), vehicle: saline
compound,measurement,setting,value
COc1cc(NS(C)(=O)=O)ccc1Nc1c2ccccc2nc2ccccc12,T/C,"dose: 3.6 mg/kg/injection, schedule: Q04DX003 (ip), vehicle: clinical formulation",188 % of control
same,T/C,"dose: 3.6 mg/kg/injection, schedule: Q04DX003 (ip), vehicle: other",122 % of control
same,T/C,"dose: 6.0 mg/kg/injection, schedule: Q04DX003 (ip), vehicle: clinical formulation",191 % of control
same,T/C,"dose: 10.0 mg/kg/injection, schedule: Q04DX003 (ip), vehicle: clinical formulation",193 % of control
same,T/C,"dose: 10.0 mg/kg/injection, schedule: Q04DX003 (ip), vehicle: other",153 % of control
same,T/C,"dose: 16.7 mg/kg/injection, schedule: Q04DX003 (ip), vehicle: clinical formulation",107 % of control
same,T/C,"dose: 16.7 mg/kg/injection, schedule: Q04DX003 (ip), vehicle: other",88 % of control
N#CCSc1ncnc2nc[nH]c12,T/C,[1],96 % of control and 100 % of control
same,T/C,[2],100 % of control and 103 % of control
same,T/C,[3],108 % of control and 123 % of control
O=C(Nc1ccc(C2=NCCN2)cc1)Nc1cccc(NC(=O)Nc2ccc(C3=NCCN3)cc2)c1,T/C,[3],179 % of control and 183 % of control
same,T/C,[4],241 % of control and 279 % of control
same,T/C,"dose: 480.0 mg/kg/injection, schedule: Q01DX010 (ip), vehicle: saline",108 % of control and 116 % of control
Nc1nc(=S)c2ncn(C3OC(CO)C(O)C3O)c2[nH]1 (centres undefined),T/C,"dose: 0.5 mg/kg/injection, schedule: Q01DX010 (ip), vehicle: saline",92 % of control
same,T/C,"dose: 1.0 mg/kg/injection, schedule: Q01DX010 (ip), vehicle: saline",107 % of control
same,T/C,[5],155 % of control
same,T/C,[6],110 % of control
same,T/C,[7],105 % of control
same,T/C,"dose: 16.0 mg/kg/injection, schedule: Q01DX010 (ip), vehicle: saline",100 % of control
Nc1nncs1,T/C,"dose: 64.8 mg/kg/injection, schedule: Q04DX003 (ip), vehicle: saline",101 % of control
same,T/C,"dose: 180.0 mg/kg/injection, schedule: Q04DX003 (ip), vehicle: saline",151 % of control
N=[N+]=CC(=O)OCC(N)C(=O)O (centres undefined),T/C,[8],152 % of control
same,T/C,[9],165 % of control
Nc1nc(=S)c2[nH]cnc2[nH]1,T/C,"dose: 1.25 mg/kg/injection, schedule: Q01DX010 (ip), vehicle: other",165 % of control
same,T/C,"dose: 5.0 mg/kg/injection, schedule: Q01DX010 (ip), vehicle: other",103 % of control and 107 % of control
CN(C)c1ccc(/C=C/c2ccnc3ccccc23)cc1,T/C,[10],92 % of control and 104 % of control
same,T/C,[11],88 % of control and 96 % of control
same,T/C,[12],104 % of control
same,T/C,[13],96 % of control and 100 % of control
NC(Cc1ccc(N(CCCl)CCCl)cc1)C(=O)O (centres undefined),T/C,"dose: 1.25 mg/kg/injection, schedule: Q01DX010 (ip), vehicle: saline",170 % of control
same,T/C,"dose: 2.5 mg/kg/injection, schedule: Q01DX010 (ip), vehicle: saline",190 % of control and 191 % of control
same,T/C,[10],300 % of control
same,T/C,[11],86 % of control and 91 % of control
CO[C@H](C(=O)[C@@H](O)[C@@H](C)O)[C@@H]1Cc2cc3cc(OC4CC(OC5CC(O)C(O)C(C)O5)C(O)C(C)O4)c(C)c(O)c3c(O)c2C(=O)[C@H]1OC1CC(OC2CC(OC3CC(C)(O)C(O)C(C)O3)C(O)C(C)O2)C(O)C(C)O1 (some centres undefined),T/C,"dose: 216.0 micrograms/kg/injection, schedule: Q01DX005 (ip), vehicle: water",97 % of control
same,T/C,"dose: 360.0 micrograms/kg/injection, schedule: Q01DX005 (ip), vehicle: water",100 % of control
same,T/C,"dose: 600.0 micrograms/kg/injection, schedule: Q01DX005 (ip), vehicle: water",95 % of control
same,T/C,"dose: 1000.0 micrograms/kg/injection, schedule: Q01DX005 (ip), vehicle: water",95 % of control
CC[C@@]1(O)C[C@H](OC2CC(N(C)C)C(OC3CC(O)C(OC4CCC(=O)C(C)O4)C(C)O3)C(C)O2)c2c(cc3c(c2O)C(=O)c2c(O)ccc(O)c2C3=O)[C@H]1C(=O)OC (some centres undefined),T/C,"dose: 2.88 mg/kg/injection, schedule: Q04DX003 (ip), vehicle: water",118 % of control
same,T/C,"dose: 4.8 mg/kg/injection, schedule: Q04DX003 (ip), vehicle: water",117 % of control
same,T/C,[14],95 % of control
O=c1[nH]c(=O)n(C2CC(O)C(CO)O2)cc1F (centres undefined),T/C,[12],112 % of control
same,T/C,[13],154 % of control
CCN(CC)CCNc1ccc(C)c2sc3ccccc3c(=O)c12,T/C,[15],159 % of control and 172 % of control
same,T/C,"dose: 100.0 mg/kg/injection, schedule: Q01DX010 (ip), vehicle: saline",100 % of control
CC1CC(C)(O)CC(C(O)CC2CC(=O)NC(=O)C2)C1=O (centres undefined),T/C,"dose: 480.0 micrograms/kg/injection, schedule: Q01DX009 (ip), vehicle: saline",105 % of control
same,T/C,"dose: 800.0 micrograms/kg/injection, schedule: Q01DX009 (ip), vehicle: saline",92 % of control
CNc1nc(Nc2ccc(C3=NCCN3)cc2)nc(Nc2ccc(C3=NCCN3)cc2)n1,T/C,[12],116 % of control
same,T/C,[2],108 % of control
same,T/C,"dose: 45.0 mg/kg/injection, schedule: Q01DX010 (ip), vehicle: saline",91 % of control
CC(=O)Nc1ccc2nc3ccc(NC(C)=O)cc3[n+](-c3ccccc3)c2c1,T/C,"dose: 25.0 mg/kg/injection, schedule: Q01DX010 (ip), vehicle: saline",91 % of control
same,T/C,[15],87 % of control
O=C(Nc1ccc(C2=NCCN2)cc1)c1ccc(C(=O)Nc2ccc(C3=NCCN3)cc2)cc1,T/C,"dose: 112.0 mg/kg/injection, schedule: Q01DX010 (ip), vehicle: saline",156 % of control
same,T/C,"dose: 167.0 mg/kg/injection, schedule: Q01DX010 (ip), vehicle: saline",173 % of control
same,T/C,"dose: 250.0 mg/kg/injection, schedule: Q01DX010 (ip), vehicle: saline",178 % of control
O=C(Nc1cccc(C(=O)Nc2ccc(C3=NCCN3)cc2)c1)c1ccc(C2=NCCN2)cc1,T/C,"dose: 54.0 mg/kg/injection, schedule: Q01DX010 (ip), vehicle: saline",104 % of control
CC[C@H]1CN2CCc3cc(OC)c(OC)cc3[C@@H]2C[C@@H]1C[C@H]1NCCc2cc(OC)c(OC)cc21,T/C,"dose: 7.78 mg/kg/injection, schedule: Q04DX003 (ip), vehicle: saline",105 % of control
same,T/C,"dose: 13.0 mg/kg/injection, schedule: Q04DX003 (ip), vehicle: saline",108 % of control
same,T/C,"dose: 21.6 mg/kg/injection, schedule: Q04DX003 (ip), vehicle: saline",105 % of control
O=C(Nc1ccc(NC2=NCCN2)cc1)c1ccc(C(=O)Nc2ccc(NC3=NCCN3)cc2)cc1,T/C,[5],121 % of control
same,T/C,[6],192 % of control
same,T/C,[7],171 % of control and 211 % of control
COc1cccc2c1C(=O)c1c(O)c3c(c(O)c1C2=O)C[C@@](O)(C(C)=O)C[C@@H]3OC1CC(N)C(O)C(C)O1 (some centres undefined),T/C,"dose: 3.6 mg/kg/injection, schedule: Q04DX003 (ip), vehicle: water",110 % of control
same,T/C,"dose: 6.0 mg/kg/injection, schedule: Q04DX003 (ip), vehicle: water",104 % of control
same,T/C,[14],114 % of control
"Cc1c2oc3c(C)ccc(C(=O)N[C@@H]4C(=O)N[C@H](C(C)C)C(=O)N5CCC[C@H]5C(=O)N(C)CC(=O)N(C)[C@@H](C(C)C)C(=O)O[C@H]4C)c3nc-2c(C(=O)N[C@@H]2C(=O)N[C@H](C(C)C)C(=O)N3CCC[C@H]3C(=O)N(C)CC(=O)N(C)[C@@H](C(C)C)C(=O)O[C@H]2C)c(N)c1=O (I: [aThr][dV]P[Sar][NMeV] / II: [aThr][dV]P[Sar][NMeV]; ester I:1-I:C, II:1-II:C; linker I:N-II:N via Actinocin(9to1))",T/C,"dose: 12.5 micrograms/kg/injection, schedule: Q01DX010 (ip), vehicle: other",108 % of control and 112 % of control
same,T/C,"dose: 25.0 micrograms/kg/injection, schedule: Q01DX010 (ip), vehicle: other",124 % of control
same,T/C,"dose: 108.0 micrograms/kg/injection, schedule: Q04DX003 (ip), vehicle: saline + alcohol",103 % of control
same,T/C,"dose: 180.0 micrograms/kg/injection, schedule: Q04DX003 (ip), vehicle: saline + alcohol",110 % of control
same,T/C,"dose: 300.0 micrograms/kg/injection, schedule: Q04DX003 (ip), vehicle: saline + alcohol",106 % of control
same,T/C,"dose: 500.0 micrograms/kg/injection, schedule: Q04DX003 (ip), vehicle: saline + alcohol",93 % of control
C[N+](C)(C)c1ncnc2nc[nH]c12,T/C,[1],100 % of control
same,T/C,[2],120 % of control
same,T/C,[3],113 % of control
same,T/C,[4],116 % of control
COc1cc([C@@H]2c3cc4c(cc3[C@@H](OC3OC5CO[C@@H](c6cccs6)OC5C(O)C3O)[C@H]3COC(=O)[C@H]23)OCO4)cc(OC)c1O (some centres undefined),T/C,"dose: 5.4 mg/kg/injection, schedule: Q04DX003 (ip), vehicle: clinical formulation",153 % of control
same,T/C,"dose: 15.0 mg/kg/injection, schedule: Q04DX003 (ip), vehicle: clinical formulation",172 % of control
O=C(O)CCCc1ccc(N(CCCl)CCCl)cc1,T/C,[8],92 % of control and 104 % of control
same,T/C,[9],100 % of control
same,T/C,"dose: 12.5 mg/kg/injection, schedule: Q01DX010 (ip), vehicle: saline",152 % of control
